The series in a line: Accelerated stability study of pranoprofen batches (impurity content by HPLC). It counts as physicochemical. The following applies: 40° C.±2° C., RH 75%±5%; for Maximum single impurity: maximum unknown single impurity. As for the experimental part:
In the present invention, unless otherwise specified, the accelerated experiment is carried out under the conditions of 40° C.±2° C. and RH75%±5% in accordance with the regulations in the “Technical Guidelines for Stability Research of Chemical Drugs”; preferably, an average value of 3 samples measured in parallel is taken.
In the present invention, unless otherwise specified, the content of each impurity or total impurities is measured by high performance liquid chromatography. Preferably, the chromatographic conditions comprise: using octadecylsilane-bonded silica gel as filler (5 μm, 250 mm×4.6 mm); using 0.05 mol/L sodium perchlorate aqueous solution-methanol (90:10, adding perchloric acid to adjust pH to 3.2) as mobile phase A, methanol as mobile phase B, following the gradient elution in Table 10, flow rate of 1.0 ml/min, column temperature of 40° C., detection wavelength of 275 nm.
In accordance with the relevant regulations in the “Technical Guidelines for Stability Research of Chemical Drugs”, the samples of the above three batches were taken and tested for 6 months under the conditions of 40° C.±2° C. and RH 75%±5%. And at the end of the 0th, 1st, 2nd, 3rd and 6th months of the experiment, the samples were taken for the detection of indicators.
The experiment was carried out according to the high performance liquid chromatography (the General Rule 0512 of the Chinese Pharmacopoeia, 2015 edition), in which octadecylsilane bonded silica gel was used as filler (5 μm, 250 mm×4.6 mm); 0.05 mol/L sodium perchlorate aqueous solution-methanol (90:10, adjusted to pH 3.2 by adding perchloric acid) was used as mobile phase A, methanol was used as mobile phase B, and gradient elution was carried out according to the table below, flow rate was 1.0 ml/min, column temperature was 40° C., and detection wavelength was 275 nm.
10 μl of the test solution was precisely taken and injected into the liquid chromatograph. If there were impurity peaks in the chromatogram of the test solution, a single impurity must not exceed 0.1%, and the sum of impurities must not exceed 0.5%.
The impurity objects to be detected were total impurity, impurity A, impurity C, impurity D, impurity L and maximum single impurity; and the detection conditions were the same as above.
Preparation of test solution: 50 mg of this product was taken, dissolved in a solvent (acetonitrile-water=1:1) and diluted to 50 ml to obtain the test solution.
Control stock solution of mixed impurities: 10.0 mg of each of impurities A, C, D, and L were weighed, respectively, and added to 10.0 ml volumetric flask, respectively, then added with methanol for dissolution and dilution to the mark, 1.0 ml of each of the above solutions was taken and added to 100.0 ml volumetric flask, then added with solvent for dilution to the mark to obtain the control stock solution of impurities.
Control solution of mixed impurities: 1.0 ml of the test solution was accurately taken, and added with solvent for dilution to 100.0 ml; 1.0 ml of the above solution was accurately taken, added with 1.0 ml of the control stock solution of mixed impurities, and added with solvent to 10.0 ml to obtain the control solution of mixed impurities.
Preparation of system suitability solution: 1.0 ml of the control stock solution of mixed impurities was accurately taken, and added with the test solution for dilution to 10 ml to obtain the system suitability solution.
Preparation of control solution: 1.0 ml of the test solution was taken, and added with solvent for dilution to 10.0 ml; 1.0 ml of the above solution was taken, and added with solvent for dilution to 100.0 ml to obtain the control solution.

Turning to `CC(C(=O)O)c1ccc2c(c1)Cc1cccnc1O2` (stereo not drawn) [Compound 20190101, pranoprofen], under “0th month”, the “Impurity A” value is reported as “Impurity A: 0.05%”, the “Impurity D” value is on record as “Impurity D: 0.02%”, the “Impurity L” value was “Impurity L: 0.02%” and the Total impurities entry was “Total impurities: 0.09%”. Moreover, under “1st month after acceleration”, the “Impurity A” value was “Impurity A: 0.03%”, the “Impurity D” value is reported as “Impurity D: 0.02%”, the “Impurity L” value was “Impurity L: 0.01%” and the Total impurities result was “Total impurities: 0.06%”. In addition, where the note is “2nd month after acceleration”, the “Impurity A” value was “Impurity A: 0.04%”, the “Impurity D” value is “Impurity D: 0.02%”, the “Impurity L” value is on record as “Impurity L: 0.01%” and the Total impurities entry is given as “Total impurities: 0.07%”. Moreover, for the setting “3rd month after acceleration”, the “Impurity A” value is listed as “Impurity A: 0.06%”, the “Impurity D” value is “Impurity D: 0.01%”, the “Impurity L” value is “Impurity L: 0.02%” and the Total impurities entry is “Total impurities: 0.08%”. Besides, for the setting “6th month after acceleration”, the “Impurity A” value is reported as “Impurity A: 0.06%”, the “Impurity C” value is reported as “Impurity C 0.03%”, the “Impurity D” value is “Impurity D: 0.02%” and the “Impurity L” value is “Impurity L: 0.02%”. In addition, where the note is “6th month after acceleration”, the Total impurities result is on record as “Total impurities: 0.17%” and the Maximum single impurity entry is “impurity: 0.02%”.
As for `CC(C(=O)O)c1ccc2c(c1)Cc1cccnc1O2` (stereo not drawn) [Compound 20190201, pranoprofen], for the setting “0th month”, the “Impurity A” value is listed as “Impurity A: 0.07%”, the “Impurity D” value is “Impurity D: 0.02%”, the “Impurity L” value is reported as “Impurity L: 0.01%” and the Total impurities entry was “Total impurities: 0.10%”. Moreover, where the note is “1st month after acceleration”, the “Impurity A” value is recorded as “Impurity A: 0.07%”, the “Impurity D” value is “Impurity D: 0.03%”, the “Impurity L” value is “Impurity L: 0.01%” and the Total impurities result is given as “Total impurities: 0.11%”. Also, under “2nd month after acceleration”, the “Impurity A” value was “Impurity A: 0.07%”, the “Impurity D” value is reported as “Impurity D: 0.02%”, the “Impurity L” value is “Impurity L: 0.01%” and the Total impurities result is listed as “Total impurities: 0.10%”. For the same compound, under “3rd month after acceleration”, the “Impurity A” value is “Impurity A: 0.07%”, the “Impurity D” value was “Impurity D: 0.02%”, the “Impurity L” value is “Impurity L: 0.02%” and the Total impurities result was “Total impurities: 0.11%”. Moreover, for the setting “6th month after acceleration”, the “Impurity A” value is on record as “Impurity A: 0.10%”, the “Impurity C” value is reported as “Impurity C 0.03%”, the “Impurity D” value is on record as “Impurity D: 0.01%” and the “Impurity L” value was “Impurity L: 0.02%”. Where the note is “6th month after acceleration”, the Total impurities result is recorded as “Total impurities: 0.24%” and the Maximum single impurity entry was “impurity: 0.08%”.
As to `CC(C(=O)O)c1ccc2c(c1)Cc1cccnc1O2` (stereo not drawn) [Compound 20190202, pranoprofen], where the note is “0th month”, the “Impurity A” value is on record as “Impurity A: 0.02%”, the “Impurity D” value is “Impurity D: 0.02%”, the “Impurity L” value was “Impurity L: 0.01%” and the Total impurities entry is “Total impurities: 0.05%”. Where the note is “1st month after acceleration”, the “Impurity A” value is recorded as “Impurity A: 0.05%”, the “Impurity D” value was “Impurity D: 0.01%”, the “Impurity L” value is given as “Impurity L: 0.02%” and the Total impurities entry is reported as “Total impurities: 0.06%”. Under “2nd month after acceleration”, the “Impurity A” value is “Impurity A: 0.04%”, the “Impurity D” value is on record as “Impurity D: 0.02%”, the “Impurity L” value is reported as “Impurity L: 0.01%” and the Total impurities entry is reported as “Total impurities: 0.07%”. For the setting “3rd month after acceleration”, the “Impurity A” value is listed as “Impurity A: 0.04%”, the “Impurity D” value is “Impurity D: 0.02%”, the “Impurity L” value is on record as “Impurity L: 0.01%” and the Total impurities entry is “Total impurities: 0.07%”. In addition, under “6th month after acceleration”, the “Impurity A” value is recorded as “Impurity A: 0.09%”, the “Impurity C” value is listed as “Impurity C 0.01%”, the “Impurity D” value was “Impurity D: 0.01%” and the “Impurity L” value is on record as “Impurity L: 0.02%”. Moreover, for the setting “6th month after acceleration”, the Total impurities entry is reported as “Total impurities: 0.15%” and the Maximum single impurity result is “impurity: 0.02%”.

These data come from patent publication US20240343738A1, “Method for preparing pranoprofen and composition comprising pranoprofen and impurity” (SHENYANG XINGQI PHARMACEUTICAL CO., LTD., priority 2021, published 2024).
